PMC9954146, “Anti-Leukaemic Activity of Rilpivirine Is Mediated by Aurora A Kinase Inhibition” (Cancers, 2023)

Legend:
Assay in all cases: Kinase panel
Type in all cases: biochemical
Conditions in all cases: read-out: % Residual Activity
p70S6K(h) = molecular target: T1, p70S6K(h) (Homo sapiens, UniProt P23443)
T1 construct: purchased Eurofins (KinaseProfiler)
How it was run: (§1)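 Selectivity panel (kinome-wide), rilpivirine as test compound. Readout: radiolabel incorporation. ATP = Km of the respective kinase. Ki calculated from IC50 (Cheng–Prusoff).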

Abl(Y253F)(h) = molecular target: T2, Abl(Y253F)(h) (Homo sapiens, UniProt P00519, Y253F)
T2 construct: purchased Eurofins (KinaseProfiler)
How it was run: as §1

ALK6(h) = molecular target: T3, ALK6(h) (Homo sapiens, UniProt O00238)
T3 construct: purchased Eurofins (KinaseProfiler)
How it was run: as §1

CK1γ2(h) = molecular target: T4, CK1γ2(h) (Homo sapiens, UniProt P78368)
T4 construct: purchased Eurofins (KinaseProfiler)
How it was run: as §1

HIPK2(h) = molecular target: T5, HIPK2(h) (Homo sapiens, UniProt Q9H2X6)
T5 construct: purchased Eurofins (KinaseProfiler)
How it was run: as §1

Fgr(h) = molecular target: T6, Fgr(h) (Homo sapiens, UniProt P09769)
T6 construct: purchased Eurofins (KinaseProfiler)
How it was run: as §1

PKR(h) = molecular target: T7, PKR(h) (Homo sapiens, UniProt P19525)
T7 construct: purchased Eurofins (KinaseProfiler)
How it was run: as §1

MEKK2(h) = molecular target: T8, MEKK2(h) (Homo sapiens, UniProt Q9Y2U5)
T8 construct: purchased Eurofins (KinaseProfiler)
How it was run: as §1

CK2α2(h) = molecular target: T9, CK2α2(h) (Homo sapiens, UniProt P19784)
T9 construct: purchased Eurofins (KinaseProfiler)
How it was run: as §1

NEK4(h) = molecular target: T10, NEK4(h) (Homo sapiens, UniProt P51957)
T10 construct: purchased Eurofins (KinaseProfiler)
How it was run: as §1

IRAK4(h) = molecular target: T11, IRAK4(h) (Homo sapiens, UniProt Q9NWZ3)
T11 construct: purchased Eurofins (KinaseProfiler)
How it was run: as §1

[1] = molecular target: PI3 Kinase (p110aH1047R)/p85a)(h) (Homo sapiens, UniProt P42336, H1047R)
How it was run: as §1

[2] = molecular target: PI3 Kinase (p110a/p85a)(h) (Homo sapiens, UniProt P42336)
How it was run: as §1

PKBα(h) = molecular target: T12, PKBα(h) (Homo sapiens, UniProt P31749)
T12 construct: purchased Eurofins (KinaseProfiler)
How it was run: as §1

MKK6(h) = molecular target: T13, MKK6(h) (Homo sapiens, UniProt P52564)
T13 construct: purchased Eurofins (KinaseProfiler)
How it was run: as §1

Lyn(m) = molecular target: T14, Lyn(m) (Mus musculus, UniProt P25911)
T14 construct: purchased Eurofins (KinaseProfiler)
How it was run: as §1

PKAcβ(h) = molecular target: T15, PKAcβ(h) (Homo sapiens, UniProt P22694)
T15 construct: purchased Eurofins (KinaseProfiler)
How it was run: as §1

[3] = molecular target: PI3 Kinase (p110b/p85a)(m) (Mus musculus, UniProt Q8BTI9)
How it was run: as §1

SAPK4(h) = molecular target: T16, SAPK4(h) (Homo sapiens, UniProt O15264)
T16 construct: purchased Eurofins (KinaseProfiler)
How it was run: as §1

PKBβ(h) = molecular target: T17, PKBβ(h) (Homo sapiens, UniProt P31751)
T17 construct: purchased Eurofins (KinaseProfiler)
How it was run: as §1

[4] = molecular target: PI3 Kinase (p110d/p85a)(m) (Mus musculus, UniProt O35904)
How it was run: as §1

Met(D1246N)(h) = molecular target: T18, Met(D1246N)(h) (Homo sapiens, UniProt P08581, D1228N)
T18 construct: purchased Eurofins (KinaseProfiler)
How it was run: as §1

Fer(h) = molecular target: T19, Fer(h) (Homo sapiens, UniProt P16591)
T19 construct: purchased Eurofins (KinaseProfiler)
How it was run: as §1

PAK6(h) = molecular target: T20, PAK6(h) (Homo sapiens, UniProt Q9NQU5)
T20 construct: purchased Eurofins (KinaseProfiler)
How it was run: as §1

PhKγ1(h) = molecular target: T21, PhKγ1(h) (Homo sapiens, UniProt Q16816)
T21 construct: purchased Eurofins (KinaseProfiler)
How it was run: as §1

ICK(h) = molecular target: T22, ICK(h) (Homo sapiens, UniProt Q9UPZ9)
T22 construct: purchased Eurofins (KinaseProfiler)
How it was run: as §1

GRK3(h) = molecular target: T23, GRK3(h) (Homo sapiens, UniProt P35626)
T23 construct: purchased Eurofins (KinaseProfiler)
How it was run: as §1

Rsk1(r) = molecular target: T24, Rsk1(r) (Rattus norvegicus, UniProt Q63531)
T24 construct: purchased Eurofins (KinaseProfiler)
How it was run: as §1

MARK4(h) = molecular target: T25, MARK4(h) (Homo sapiens, UniProt Q96L34)
T25 construct: purchased Eurofins (KinaseProfiler)
How it was run: as §1

Pim-2(h) = molecular target: T26, Pim-2(h) (Homo sapiens, UniProt Q9P1W9)
T26 construct: purchased Eurofins (KinaseProfiler)
How it was run: as §1

SAPK2a(h) = molecular target: T27, SAPK2a(h) (Homo sapiens, UniProt Q16539)
T27 construct: purchased Eurofins (KinaseProfiler)
How it was run: as §1

CDK9/cyclin T1(h) = molecular target: T28, CDK9/cyclin T1(h) (Homo sapiens, UniProt P50750)
T28 construct: purchased Eurofins (KinaseProfiler)
How it was run: as §1

CaMKK2(h) = molecular target: T29, CaMKK2(h) (Homo sapiens, UniProt Q96RR4)
T29 construct: purchased Eurofins (KinaseProfiler)
How it was run: as §1

Wee1B(h) = molecular target: T30, Wee1B(h) (Homo sapiens, UniProt P0C1S8)
T30 construct: purchased Eurofins (KinaseProfiler)
How it was run: as §1

CK1δ(h) = molecular target: T31, CK1δ(h) (Homo sapiens, UniProt P48730)
T31 construct: purchased Eurofins (KinaseProfiler)
How it was run: as §1

LRRK2(h) = molecular target: T32, LRRK2(h) (Homo sapiens, UniProt Q5S007)
T32 construct: purchased Eurofins (KinaseProfiler)
How it was run: as §1

LTK(h) = molecular target: T33, LTK(h) (Homo sapiens, UniProt P29376)
T33 construct: purchased Eurofins (KinaseProfiler)
How it was run: as §1

MKK3(h) = molecular target: T34, MKK3(h) (Homo sapiens, UniProt P46734)
T34 construct: purchased Eurofins (KinaseProfiler)
How it was run: as §1

T27 sequence (Q16539 whole entry): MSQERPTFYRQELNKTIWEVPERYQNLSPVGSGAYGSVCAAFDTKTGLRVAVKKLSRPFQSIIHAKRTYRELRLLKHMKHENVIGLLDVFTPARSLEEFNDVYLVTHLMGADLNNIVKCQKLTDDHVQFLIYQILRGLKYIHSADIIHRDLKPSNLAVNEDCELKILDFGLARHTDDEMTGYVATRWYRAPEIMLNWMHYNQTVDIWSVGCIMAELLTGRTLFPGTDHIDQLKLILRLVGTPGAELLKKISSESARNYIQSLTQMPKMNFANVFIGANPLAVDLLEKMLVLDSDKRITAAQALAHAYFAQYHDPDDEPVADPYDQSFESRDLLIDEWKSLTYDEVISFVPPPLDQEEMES
T30 sequence (P0C1S8 whole entry): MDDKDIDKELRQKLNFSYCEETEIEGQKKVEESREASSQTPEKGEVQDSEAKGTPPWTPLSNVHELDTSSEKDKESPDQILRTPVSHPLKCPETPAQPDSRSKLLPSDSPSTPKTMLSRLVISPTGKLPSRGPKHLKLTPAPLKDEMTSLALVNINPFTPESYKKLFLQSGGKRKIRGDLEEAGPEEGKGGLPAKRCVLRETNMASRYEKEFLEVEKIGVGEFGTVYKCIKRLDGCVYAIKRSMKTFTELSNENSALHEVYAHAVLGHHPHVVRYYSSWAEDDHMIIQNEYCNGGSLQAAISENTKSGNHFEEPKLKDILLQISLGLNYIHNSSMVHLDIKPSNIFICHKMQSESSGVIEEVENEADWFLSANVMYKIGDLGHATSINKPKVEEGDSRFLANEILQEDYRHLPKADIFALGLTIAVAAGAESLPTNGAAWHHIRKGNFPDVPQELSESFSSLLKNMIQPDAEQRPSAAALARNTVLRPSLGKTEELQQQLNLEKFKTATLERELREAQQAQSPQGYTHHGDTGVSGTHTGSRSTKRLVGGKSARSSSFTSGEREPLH
Chain of PI3 Kinase (p110aH1047R)/p85a)(h) (P42336 whole entry H1047R): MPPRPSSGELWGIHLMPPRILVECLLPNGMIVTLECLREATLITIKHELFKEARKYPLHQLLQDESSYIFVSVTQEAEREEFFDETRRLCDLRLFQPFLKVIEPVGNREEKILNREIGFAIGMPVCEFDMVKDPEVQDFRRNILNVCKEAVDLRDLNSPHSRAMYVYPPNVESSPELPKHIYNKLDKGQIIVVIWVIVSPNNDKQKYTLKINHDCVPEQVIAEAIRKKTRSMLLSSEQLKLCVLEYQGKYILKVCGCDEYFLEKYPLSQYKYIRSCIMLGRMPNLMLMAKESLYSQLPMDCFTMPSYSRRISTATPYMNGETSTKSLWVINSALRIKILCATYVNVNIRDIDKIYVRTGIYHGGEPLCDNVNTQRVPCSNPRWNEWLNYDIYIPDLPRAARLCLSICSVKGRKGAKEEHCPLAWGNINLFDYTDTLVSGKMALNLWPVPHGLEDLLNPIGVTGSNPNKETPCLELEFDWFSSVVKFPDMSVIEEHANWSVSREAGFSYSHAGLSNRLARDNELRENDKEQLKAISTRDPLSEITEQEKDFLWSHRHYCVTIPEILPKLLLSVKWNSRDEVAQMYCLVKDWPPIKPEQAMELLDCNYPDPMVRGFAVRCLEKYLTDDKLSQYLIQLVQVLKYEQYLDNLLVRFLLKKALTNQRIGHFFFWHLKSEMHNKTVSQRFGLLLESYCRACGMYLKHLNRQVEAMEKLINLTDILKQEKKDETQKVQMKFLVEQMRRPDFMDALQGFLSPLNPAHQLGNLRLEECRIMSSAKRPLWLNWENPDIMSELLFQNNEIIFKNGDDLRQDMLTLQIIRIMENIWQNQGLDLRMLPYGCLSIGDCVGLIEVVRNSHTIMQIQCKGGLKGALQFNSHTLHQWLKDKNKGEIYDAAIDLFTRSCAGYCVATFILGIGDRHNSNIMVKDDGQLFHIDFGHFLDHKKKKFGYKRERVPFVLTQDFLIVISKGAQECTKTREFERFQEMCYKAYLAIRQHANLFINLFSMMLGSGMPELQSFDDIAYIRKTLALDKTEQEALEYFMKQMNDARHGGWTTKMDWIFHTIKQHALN
Chain of PI3 Kinase (p110aH1047R)/p85a)(h) (P27986 whole entry partner): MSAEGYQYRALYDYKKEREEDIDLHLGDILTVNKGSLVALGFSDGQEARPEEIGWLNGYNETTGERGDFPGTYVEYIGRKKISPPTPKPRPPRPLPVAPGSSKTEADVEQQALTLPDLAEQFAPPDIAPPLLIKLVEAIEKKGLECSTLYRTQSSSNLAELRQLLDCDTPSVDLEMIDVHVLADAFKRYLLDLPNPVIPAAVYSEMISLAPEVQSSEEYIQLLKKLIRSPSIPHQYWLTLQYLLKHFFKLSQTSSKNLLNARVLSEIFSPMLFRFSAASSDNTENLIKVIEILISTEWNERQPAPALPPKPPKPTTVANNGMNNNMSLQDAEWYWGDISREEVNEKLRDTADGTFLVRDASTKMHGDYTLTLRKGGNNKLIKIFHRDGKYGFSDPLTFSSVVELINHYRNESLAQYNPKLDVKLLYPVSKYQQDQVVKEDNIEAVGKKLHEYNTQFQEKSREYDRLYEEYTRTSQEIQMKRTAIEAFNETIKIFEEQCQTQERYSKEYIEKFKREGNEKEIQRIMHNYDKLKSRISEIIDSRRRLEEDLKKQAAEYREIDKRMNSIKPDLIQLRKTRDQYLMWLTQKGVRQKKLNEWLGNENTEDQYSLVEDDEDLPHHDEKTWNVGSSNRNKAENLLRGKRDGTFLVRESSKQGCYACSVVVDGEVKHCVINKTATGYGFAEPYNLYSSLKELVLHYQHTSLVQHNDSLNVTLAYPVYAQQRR
T4 sequence (P78368 whole entry): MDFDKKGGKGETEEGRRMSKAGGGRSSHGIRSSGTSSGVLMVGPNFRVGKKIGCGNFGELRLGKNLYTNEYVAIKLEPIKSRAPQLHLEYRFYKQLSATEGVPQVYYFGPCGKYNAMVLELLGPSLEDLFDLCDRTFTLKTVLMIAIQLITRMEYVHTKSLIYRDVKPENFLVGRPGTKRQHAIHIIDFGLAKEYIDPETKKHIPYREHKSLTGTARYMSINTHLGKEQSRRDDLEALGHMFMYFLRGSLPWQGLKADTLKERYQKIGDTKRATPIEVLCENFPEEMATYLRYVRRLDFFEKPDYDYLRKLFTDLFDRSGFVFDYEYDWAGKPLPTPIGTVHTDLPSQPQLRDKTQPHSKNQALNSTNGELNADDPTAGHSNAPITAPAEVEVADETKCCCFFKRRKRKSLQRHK
T9 sequence (P19784 whole entry): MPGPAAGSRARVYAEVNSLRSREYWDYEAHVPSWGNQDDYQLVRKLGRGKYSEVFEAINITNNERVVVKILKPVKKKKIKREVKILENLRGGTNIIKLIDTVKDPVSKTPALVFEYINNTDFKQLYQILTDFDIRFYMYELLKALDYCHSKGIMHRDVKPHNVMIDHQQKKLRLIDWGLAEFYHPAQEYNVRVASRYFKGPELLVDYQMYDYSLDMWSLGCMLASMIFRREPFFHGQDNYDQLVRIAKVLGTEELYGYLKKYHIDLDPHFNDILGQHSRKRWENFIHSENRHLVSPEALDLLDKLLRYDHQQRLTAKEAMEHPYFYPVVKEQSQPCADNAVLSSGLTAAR
T33 sequence (P29376 17-864): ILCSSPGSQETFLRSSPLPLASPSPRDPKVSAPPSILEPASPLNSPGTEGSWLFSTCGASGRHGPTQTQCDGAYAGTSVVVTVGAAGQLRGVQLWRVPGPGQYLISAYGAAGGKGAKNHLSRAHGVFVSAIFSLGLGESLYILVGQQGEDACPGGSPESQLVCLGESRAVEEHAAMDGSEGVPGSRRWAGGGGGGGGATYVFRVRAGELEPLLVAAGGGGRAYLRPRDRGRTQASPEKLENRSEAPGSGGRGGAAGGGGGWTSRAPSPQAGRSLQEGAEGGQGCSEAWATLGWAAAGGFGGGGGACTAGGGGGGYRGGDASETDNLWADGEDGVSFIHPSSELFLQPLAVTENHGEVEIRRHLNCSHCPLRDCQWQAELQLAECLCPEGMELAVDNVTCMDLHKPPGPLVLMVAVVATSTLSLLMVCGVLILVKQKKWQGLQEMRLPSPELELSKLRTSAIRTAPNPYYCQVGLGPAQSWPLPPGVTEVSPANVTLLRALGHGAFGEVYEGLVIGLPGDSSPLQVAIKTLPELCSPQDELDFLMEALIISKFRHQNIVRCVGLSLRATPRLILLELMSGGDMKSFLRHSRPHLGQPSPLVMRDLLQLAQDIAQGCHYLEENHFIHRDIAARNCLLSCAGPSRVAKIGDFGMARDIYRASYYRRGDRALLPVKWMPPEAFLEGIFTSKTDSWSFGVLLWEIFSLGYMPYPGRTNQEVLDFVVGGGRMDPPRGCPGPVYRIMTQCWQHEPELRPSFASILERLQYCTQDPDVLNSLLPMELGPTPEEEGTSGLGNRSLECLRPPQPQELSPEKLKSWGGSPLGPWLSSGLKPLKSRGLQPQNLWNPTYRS
T3 sequence (O00238 14-502): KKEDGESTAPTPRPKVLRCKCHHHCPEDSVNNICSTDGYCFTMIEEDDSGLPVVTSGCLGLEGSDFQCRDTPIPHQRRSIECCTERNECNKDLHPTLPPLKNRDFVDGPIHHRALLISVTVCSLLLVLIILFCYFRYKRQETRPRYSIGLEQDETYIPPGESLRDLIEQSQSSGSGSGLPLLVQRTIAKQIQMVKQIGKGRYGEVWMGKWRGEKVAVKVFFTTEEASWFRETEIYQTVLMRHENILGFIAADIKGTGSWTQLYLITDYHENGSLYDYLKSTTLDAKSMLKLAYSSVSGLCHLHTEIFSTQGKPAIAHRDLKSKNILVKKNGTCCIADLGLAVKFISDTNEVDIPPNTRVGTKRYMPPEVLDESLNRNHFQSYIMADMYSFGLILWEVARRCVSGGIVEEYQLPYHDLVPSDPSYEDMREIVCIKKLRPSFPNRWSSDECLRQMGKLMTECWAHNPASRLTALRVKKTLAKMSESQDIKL
Chain of PI3 Kinase (p110a/p85a)(h) (P42336 whole entry): as the sequence (P42336 whole entry H1047R) above, with R1047H counted along it
Chain of PI3 Kinase (p110a/p85a)(h) (P27986 whole entry partner): as the sequence (P27986 whole entry partner) above

Cc1cc(/C=C/C#N)cc(C)c1Nc1ccnc(Nc2ccc(C#N)cc2)n1 [rilpivirine, (E)-4-((4-((4-(2-cyanoethenyl)-2,6-dimethylphenyl)amino)pyrimidin-2-yl)amino)benzonitrile]
remaining activity at 1 µM (p70S6K(h)): 108% | remaining activity at 1 µM (Abl(Y253F)(h)): 58% | remaining activity at 1 µM (ALK6(h)): 83% | remaining activity at 1 µM (CK1γ2(h)): 90% | remaining activity at 1 µM (HIPK2(h)): 85% | remaining activity at 1 µM (Fgr(h)): 37% | remaining activity at 1 µM (PKR(h)): 92% | remaining activity at 1 µM (MEKK2(h)): 104% | remaining activity at 1 µM (CK2α2(h)): 104% | remaining activity at 1 µM (NEK4(h)): 97% | remaining activity at 1 µM (IRAK4(h)): 80% | remaining activity at 1 µM [1]: 93% | remaining activity at 1 µM [2]: 98% | remaining activity at 1 µM (PKBα(h)): 80% | remaining activity at 1 µM (MKK6(h)): 94% | remaining activity at 1 µM (Lyn(m)): 25% | remaining activity at 1 µM (PKAcβ(h)): 93% | remaining activity at 1 µM [3]: 98% | remaining activity at 1 µM (SAPK4(h)): 97% | remaining activity at 1 µM (PKBβ(h)): 90% | remaining activity at 1 µM [4]: 99% | remaining activity at 1 µM (Met(D1246N)(h)): 102% | remaining activity at 1 µM (Fer(h)): 91% | remaining activity at 1 µM (PAK6(h)): 117% | remaining activity at 1 µM (PhKγ1(h)): 80% | remaining activity at 1 µM (ICK(h)): 99% | remaining activity at 1 µM (GRK3(h)): 92% | remaining activity at 1 µM (Rsk1(r)): 90% | remaining activity at 1 µM (MARK4(h)): 88% | remaining activity at 1 µM (Pim-2(h)): 56% | remaining activity at 1 µM (SAPK2a(h)): 84% | remaining activity at 1 µM (CDK9/cyclin T1(h)): 81% | remaining activity at 1 µM (CaMKK2(h)): 109% | remaining activity at 1 µM (Wee1B(h)): 94% | remaining activity at 1 µM (CK1δ(h)): 99% | remaining activity at 1 µM (LRRK2(h)): 93% | remaining activity at 1 µM (LTK(h)): 78% | remaining activity at 1 µM (MKK3(h)): 111%
